Values quoted from earlier work in patent publication US9138422B2, “Method of using antimycin A to downregulate Wnt/b-catenin pathway to treat gefitinib resistant cancer” (priority 2011, dated 2015).
Read-outs that look alike come from different tables or passages of the source.

Tested on: NSCLC (lung adenocarcinoma) patients
Details: cited from earlier work

For C#Cc1cccc(Nc2ncnc3cc(OCCOC)c(OCCOC)cc23)c1 [erlotinib], which “median progression free survival” value (second line treatment after chemotherapy) is on record?
The value was 2.2 months.

With COc1cc2ncnc(Nc3ccc(F)c(Cl)c3)c2cc1OCCCN1CCOCC1 [gefitinib] as the compound, how does the “median progression free survival” value (first-line treatment, sensitive EGFR mutated patients) read?
Its value is “about 10 months”.
